One assay has as its system ACE. Details: method as in PMID 22224920. The settings on record: bromelain-generated peptide from Misgurnus anguillicaudatus tissue protein; cited from earlier work.
In assay [1] the target is T1, angiotensin I-converting enzyme (from rabbit lung) (Oryctolagus cuniculus, UniProt P12822).
T1 construct: angiotensin I-converting enzyme (from rabbit lung); purchased Sigma Aldrich (St. Louis, Mo, USA); host or cells: rabbit lung (tissue-derived)
T1 sequence (P12822 34-1310): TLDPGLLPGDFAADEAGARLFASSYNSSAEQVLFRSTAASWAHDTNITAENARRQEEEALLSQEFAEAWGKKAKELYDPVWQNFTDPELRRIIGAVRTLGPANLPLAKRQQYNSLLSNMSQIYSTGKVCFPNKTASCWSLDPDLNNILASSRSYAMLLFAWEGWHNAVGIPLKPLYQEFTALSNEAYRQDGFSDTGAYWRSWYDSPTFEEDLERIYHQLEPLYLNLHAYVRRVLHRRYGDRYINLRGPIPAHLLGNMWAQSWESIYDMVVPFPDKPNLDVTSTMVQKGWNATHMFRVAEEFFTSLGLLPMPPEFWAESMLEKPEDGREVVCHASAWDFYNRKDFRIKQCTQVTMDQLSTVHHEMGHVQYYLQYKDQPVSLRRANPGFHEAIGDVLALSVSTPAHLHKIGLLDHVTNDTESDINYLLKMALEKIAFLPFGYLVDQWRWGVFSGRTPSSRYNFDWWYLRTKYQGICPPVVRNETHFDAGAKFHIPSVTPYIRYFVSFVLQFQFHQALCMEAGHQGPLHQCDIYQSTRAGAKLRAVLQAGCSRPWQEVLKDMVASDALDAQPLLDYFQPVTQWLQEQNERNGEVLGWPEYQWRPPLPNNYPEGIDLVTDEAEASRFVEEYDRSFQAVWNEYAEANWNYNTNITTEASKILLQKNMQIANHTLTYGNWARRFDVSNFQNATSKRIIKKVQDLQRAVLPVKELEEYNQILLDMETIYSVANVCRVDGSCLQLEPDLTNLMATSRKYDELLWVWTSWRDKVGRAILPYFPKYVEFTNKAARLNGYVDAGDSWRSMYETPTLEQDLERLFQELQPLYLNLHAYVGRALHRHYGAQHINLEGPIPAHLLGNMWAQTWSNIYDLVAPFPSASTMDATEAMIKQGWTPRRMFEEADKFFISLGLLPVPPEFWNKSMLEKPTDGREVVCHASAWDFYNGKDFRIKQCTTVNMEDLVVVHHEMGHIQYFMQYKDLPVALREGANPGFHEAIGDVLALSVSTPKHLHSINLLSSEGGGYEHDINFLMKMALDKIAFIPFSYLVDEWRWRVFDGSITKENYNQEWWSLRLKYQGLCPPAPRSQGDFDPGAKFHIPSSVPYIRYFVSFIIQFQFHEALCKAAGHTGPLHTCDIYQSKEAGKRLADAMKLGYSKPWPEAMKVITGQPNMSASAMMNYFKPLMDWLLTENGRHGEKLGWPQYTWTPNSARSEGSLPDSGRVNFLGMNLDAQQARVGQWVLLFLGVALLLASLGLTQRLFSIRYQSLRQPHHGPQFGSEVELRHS
The experiment in a line: ACE-inhibitory activity assay (HHL substrate, colorimetric at 410 nm) and IC50 determination. It is filed as biochemical. Conditions: mean ± SD, triplicate; for inhibition at 10000 µM: synthesized peptide at 10 mM; for IC50: synthesized peptide, non-linear regression. The method, then:
The peptides were chemically synthesized through solid phase synthesis for peptides ≥ 5 amino acids with a percentage purity of > 90% and supplied by Genscript (New Jersey, USA). The ACE-inhibitory activity was measured according to Jimsheena & Gowda with minor modifications. The Peptides stock solutions were diluted over ranges of concentration for each peptide. A 15 μL of the peptide was pre-incubated with 10 μL of ACE (100 mU/mL) at 37°C for 10 min. Then 50 μL of the 5 mM HHL substrate containing 0.30 M NaCl in 50 mM borate buffer pH 8.30 was added and the incubation was continued for the next 60 min. The reaction was stopped using 1 M HCl. Benzene sulfonyl chloride (BSC) and pyridine were then added at 75 μL and 150 μL, respectively and the amount of hippuric acid produced was quantified by the intensity of the yellow color produced in a microplate reader at 410 nm. The ACE-inhibitory activity of the peptides was then calculated from the average of three values as follows: ACE−inhibition(%)=[(AC−AS)/(AC−AB)]×100 (1)
Where AC means absorbance of control (where ACE and substrate were present), AS means absorbance of sample (where peptide, ACE and substrate were present), while AB means the absorbance of blank (where only substrate was present).

No end group written: not given here.

For orientation: IC50 means the concentration needed to halve the response being measured. On to “Ala-His-Leu-Leu (AHLL; printed: Ala-His-Leu-Leu)”, for which the IC50 in the assay on ACE was 18.200 ± 0.900 µg/mL.
A word on the inhibition: it is the change of the read-out against control, counted positive when it falls. Read a low inhibition as a response near the control. With EHPVL [Glu-His-Pro-Val-Leu], in assay [1], the inhibition at 10000 µM is 54.8 ± 2.17% and the IC50 came to 1.68 ± 0.046 mM.
Taken in the same sequence, the figures for ALGPQFY [Ala-Leu-Gly-Pro-Gln-Phe-Tyr] were 94.4 ± 2.05% and 0.012 ± 0.001 mM.
With LAPPTM [Leu-Ala-Pro-Pro-Thr-Met], in assay [1], the inhibition at 10000 µM amounted to 72.4 ± 1.99% and inhibition was half-maximal at 1.31 ± 0.017 mM (IC50).
Taken in the same sequence, the figures for EVLIQ [Glu-Val-Leu-Ile-Gln] were 62.1 ± 2.15% and 1.44 ± 0.017 mM.
Taken in the same sequence, the figures for KVPPKA [Lys-Val-Pro-Pro-Lys-Ala] were 81.4 ± 1.78% and 0.98 ± 0.004 mM.

The values are drawn from paper PMC6542528, “Identification, structure-activity relationship and in silico molecular docking analyses of five novel angiotensin I-converting enzyme (ACE)-inhibitory peptides from stone fish (Actinopyga lecanora) hydrolysates” (PLoS ONE, 2019).
